Structures can show the parent of a compound that is named as a salt.
Tests used:
[1] = system: bacterial strains that express KPC β-lactamases; assay: Synergy MIC / standard BLI potentiation MIC assay, strains expressing KPC β-lactamases; format: cell-based; conditions: more active for at least one KPC strain and/or better spectrum of activity than Avibactam; in the presence of a β-lactam
Experimental: (§1) The experimental protocol was performed according to Clinical and Laboratory Standards Institute (CLSI) guidelines with modifications as described below (CLSI guidelines can be derived from the CLSI document M07-A9 published in January 2012: “Methods for Dilution Antimicrobial Susceptibility Tests for Bacteria That Grow Aerobically; Approved Standard-Ninth Edition”).
(§2) To prepare for MIC testing, frozen glycerol stocks of clinical isolates (Klebsiella pneumoniae, Eschericia coli, Enterobacter spp, Citrobacter spp, or Pseudomonas aeruginosa) were used to streak for isolated colonies on rich, non-selective, tryptic soy agar containing 5% sheep's blood (TSAB). Frozen glycerol stocks of laboratory engineered, isogenic E. coli strains, which contain cloned β-lactamase expressing plasmids were used to streak for isolated colonies on rich, selective LB agar supplemented with 25 μg/mL tetracycline to maintain the plasmid. All strains were incubated at 37° C. for 18-24 hrs.
(§3) On the day of testing, primary cultures were started by scraping off 5-10 colonies from the TSAB plates containing clinical strains or the tetracycline supplemented LB plates containing engineered strains. The clinical strain material was suspended in ˜5 mL of cation adjusted Mueller Hinton Broth (CAMHB) in 14 mL culture tubes. The engineered strain material was suspended in CAMHB (supplemented with 25 μg/mL tetracycline) in 14 mL culture tubes. All strains were incubated at 37° C. with aeration (200 rpm) for ˜2 hrs until the optical density at 600 nm (OD600) was ≧0.1.
(§4) The two compound components of the assay were each diluted in CAMHB and added to the 96-well broth microdilution assay plates. 50 μL of the β-lactam was added to each well of the assay plate in 2-fold dilutions with final concentrations ranging from 128 to 0.13 μg/mL. 25 μL of the BLI compound was added to all wells in the broth microdilution plates at a final concentration of 4 μg/mL. Inoculum cultures were prepared by standardizing the primary cultures to OD600=0.1 and then adding 20 μL of the adjusted primary culture per 1 mL CAMHB for clinical strains or CAMHB (supplemented with tetracycline at 100 μg/mL) for engineered strains, so that the final inoculum density was ˜10^5 colony forming units per milliliter. Diluted inoculum cultures were used to inoculate 25 μL per well in 96-well broth microdilution assay plates. The final volume of each well was 100 μL and contained a β-lactam at different concentrations, a BLI compound at 4 μg/mL concentration, the bacterial culture at an OD600 of approximately 0.001 and when necessary tetracycline at 25 μg/mL.
(§5) Plates were incubated for 18-20 hours at 37° C. with aeration (200 rpm). Following incubation, growth was confirmed visually placing plates over a viewing apparatus (stand with a mirror underneath) and then OD600 was measured using a SpectraMax 340PC384 plate reader (Molecular Devices, Sunnyvale, Calif.). Growth was defined as turbidity that could be detected with the naked eye or achieving minimum OD600 of 0.1. MIC values were defined as the lowest concentration producing no visible turbidity.
(§6) The synergy MIC (sMIC) assay determines the concentration of the BLI required to potentiate the activity of a fixed concentration of a β-lactam antibiotic against β-lactamase producing bacterial strains. The experimental protocol was performed according to Clinical and Laboratory Standards Institute (CLSI) guidelines with modifications as described below (CLSI guidelines can be derived from the CLSI document M07-A9 published in January 2012: “Methods for Dilution Antimicrobial Susceptibility Tests for Bacteria That Grow Aerobically; Approved Standard-Ninth Edition”). […]

[2] = system: bacterial strains that express the class D cephalosporinase OXA-15; assay: Synergy MIC / standard BLI potentiation MIC assay, strains expressing OXA-15; format: cell-based, E. coli; conditions: in the presence of a β-lactam; comparator Avibactam (comparator compound CCC)
Experimental: as §1, §2, §3, §4, §5, §6

## N=C(N)NC1CC(Cc2nnc([C@@H]3CC[C@@H]4CN3C(=O)N4OS(=O)(=O)O)o2)C1 (stereo partly drawn) [Compound 752, (2S,5R)-2-(5-((3-guanidinocyclobutyl)methyl)-1,3,4-oxadiazol-2-yl)-7-oxo-1,6-diazabicyclo[3.2.1]octan-6-yl hydrogen sulfate]
[1]
  activity and/or spectrum of activity against bacterial strains that express KPC β-lactamases, compared with Avibactam: more active than Avibactam
[2]
  activity against bacterial strains that express the class D cephalosporinase OXA-15, compared with Avibactam: more active than Avibactam

## N[C@@H]1CN[C@H](c2nnc([C@@H]3CC[C@@H]4CN3C(=O)N4OS(=O)(=O)O)o2)C1 [Compound 760, (2S,5R)-2-(5-((2S,4S)-4-aminopyrrolidin-2-yl)-1,3,4-oxadiazol-2-yl)-7-oxo-1,6-diazabicyclo[3.2.1]octan-6-yl hydrogen sulfate]
[1]
  activity and/or spectrum of activity against bacterial strains that express KPC β-lactamases, compared with Avibactam: more active than Avibactam
[2]
  activity against bacterial strains that express the class D cephalosporinase OXA-15, compared with Avibactam: more active than Avibactam

## N[C@H]1CC[C@@H](c2nnc([C@@H]3CC[C@@H]4CN3C(=O)N4OS(=O)(=O)O)o2)C1 [Compound 768, (2S,5R)-2-(5-((1R,3S)-3-aminocyclopentyl)-1,3,4-oxadiazol-2-yl)-7-oxo-1,6-diazabicyclo[3.2.1]octan-6-yl hydrogen sulfate]
[1]
  activity and/or spectrum of activity against bacterial strains that express KPC β-lactamases, compared with Avibactam: more active than Avibactam
[2]
  activity against bacterial strains that express the class D cephalosporinase OXA-15, compared with Avibactam: more active than Avibactam

## N[C@H]1C[C@@H](Cc2nnc([C@@H]3CC[C@@H]4CN3C(=O)N4OS(=O)(=O)O)o2)C1 [Compound 728, (2S,5R)-2-(5-(((1s,3R)-3-aminocyclobutyl)methyl)-1,3,4-oxadiazol-2-yl)-7-oxo-1,6-diazabicyclo[3.2.1]octan-6-yl hydrogen sulfate]
[1]
  activity and/or spectrum of activity against bacterial strains that express KPC β-lactamases, compared with Avibactam: more active than Avibactam
[2]
  activity against bacterial strains that express the class D cephalosporinase OXA-15, compared with Avibactam: more active than Avibactam

## N=C1NCC(c2nnc([C@@H]3CC[C@@H]4CN3C(=O)N4OS(=O)(=O)O)o2)N1 (stereo partly drawn) [Compound 767, (2S,5R)-2-(5-(2-iminoimidazolidin-4-yl)-1,3,4-oxadiazol-2-yl)-7-oxo-1,6-diazabicyclo[3.2.1]octan-6-yl hydrogen sulfate]
[1]
  activity and/or spectrum of activity against bacterial strains that express KPC β-lactamases, compared with Avibactam: more active than Avibactam
[2]
  activity against bacterial strains that express the class D cephalosporinase OXA-15, compared with Avibactam: more active than Avibactam

## O=C1N2C[C@@H](CC[C@H]2c2nnc(CN[C@H]3CCNC3)o2)N1OS(=O)(=O)O [Compound 765, (2S,5R)-7-oxo-2-(5-(((S)-pyrrolidin-3-ylamino)methyl)-1,3,4-oxadiazol-2-yl)-1,6-diazabicyclo[3.2.1]octan-6-yl hydrogen sulfate]
[1]
  activity and/or spectrum of activity against bacterial strains that express KPC β-lactamases, compared with Avibactam: more active than Avibactam
[2]
  activity against bacterial strains that express the class D cephalosporinase OXA-15, compared with Avibactam: more active than Avibactam

## N[C@H]1C[C@@H](NCc2nnc([C@@H]3CC[C@@H]4CN3C(=O)N4OS(=O)(=O)O)o2)C1 [Compound 756, (2S,5R)-2-(5-((((1s,3R)-3-aminocyclobutyl)amino)methyl)-1,3,4-oxadiazol-2-yl)-7-oxo-1,6-diazabicyclo[3.2.1]octan-6-yl hydrogen sulfate]
[1]
  activity and/or spectrum of activity against bacterial strains that express KPC β-lactamases, compared with Avibactam: more active than Avibactam
[2]
  activity against bacterial strains that express the class D cephalosporinase OXA-15, compared with Avibactam: more active than Avibactam

## O=C1N2C[C@@H](CC[C@H]2c2nnc([C@H]3[C@@H]4CNC[C@@H]43)o2)N1OS(=O)(=O)O [Compound 740, (2S,5R)-2-(5-(3-azabicyclo[3.1.0]hexan-6-yl)-1,3,4-oxadiazol-2-yl)-7-oxo-1,6-diazabicyclo[3.2.1]octan-6-yl hydrogen sulfate]
[1]
  activity and/or spectrum of activity against bacterial strains that express KPC β-lactamases, compared with Avibactam: more active than Avibactam
[2]
  activity against bacterial strains that express the class D cephalosporinase OXA-15, compared with Avibactam: more active than Avibactam

## O=C1N2C[C@@H](CC[C@H]2c2nnc(CCN3CCNCC3)o2)N1OS(=O)(=O)O [Compound 776, (2S,5R)-7-oxo-2-(5-(2-(piperazin-1-yl)ethyl)-1,3,4-oxadiazol-2-yl)-1,6-diazabicyclo[3.2.1]octan-6-yl hydrogen sulfate]
[1]
  activity and/or spectrum of activity against bacterial strains that express KPC β-lactamases, compared with Avibactam: more active than Avibactam
[2]
  activity against bacterial strains that express the class D cephalosporinase OXA-15, compared with Avibactam: more active than Avibactam

## N=C(N)NCC(O)Cc1nnc([C@@H]2CC[C@@H]3CN2C(=O)N3OS(=O)(=O)O)o1 (stereo partly drawn) [Compound 730, (2S,5R)-2-(5-(3-guanidino-2-hydroxypropyl)-1,3,4-oxadiazol-2-yl)-7-oxo-1,6-diazabicyclo[3.2.1]octan-6-yl hydrogen sulfate]
[1]
  activity and/or spectrum of activity against bacterial strains that express KPC β-lactamases, compared with Avibactam: more active than Avibactam
[2]
  activity against bacterial strains that express the class D cephalosporinase OXA-15, compared with Avibactam: more active than Avibactam

## O=C1N2C[C@@H](CC[C@H]2c2nnc(CCNC3CNC3)o2)N1OS(=O)(=O)O [Compound 745, (2S,5R)-2-(5-(2-(azetidin-3-ylamino)ethyl)-1,3,4-oxadiazol-2-yl)-7-oxo-1,6-diazabicyclo[3.2.1]octan-6-yl hydrogen sulfate]
[1]
  activity and/or spectrum of activity against bacterial strains that express KPC β-lactamases, compared with Avibactam: more active than Avibactam
[2]
  activity against bacterial strains that express the class D cephalosporinase OXA-15, compared with Avibactam: more active than Avibactam

## O=C1N2C[C@@H](CC[C@H]2c2nnc(CCC3CNC3)o2)N1OS(=O)(=O)O [Compound 742, (2S,5R)-2-(5-(2-(azetidin-3-yl)ethyl)-1,3,4-oxadiazol-2-yl)-7-oxo-1,6-diazabicyclo[3.2.1]octan-6-yl hydrogen sulfate]
[1]
  activity and/or spectrum of activity against bacterial strains that express KPC β-lactamases, compared with Avibactam: more active than Avibactam
[2]
  activity against bacterial strains that express the class D cephalosporinase OXA-15, compared with Avibactam: more active than Avibactam

## NC(=O)c1nnc([C@@H]2CC[C@@H]3CN2C(=O)N3OS(=O)(=O)O)o1 [Compound 706, (2S,5R)-2-(5-carbamoyl-1,3,4-oxadiazol-2-yl)-7-oxo-1,6-diaza-bicyclo[3.2.1]octan-6-yl hydrogen sulfate]
[1]
  activity and/or spectrum of activity against bacterial strains that express KPC β-lactamases, compared with Avibactam: more active than Avibactam
[2]
  activity against bacterial strains that express the class D cephalosporinase OXA-15, compared with Avibactam: more active than Avibactam

## N=C(N)N1CC(Cc2nnc([C@@H]3CC[C@@H]4CN3C(=O)N4OS(=O)(=O)O)o2)C1 [Compound 741, (2S,5R)-2-(5-((1-carbamimidoylazetidin-3-yl)methyl)-1,3,4-oxadiazol-2-yl)-7-oxo-1,6-diazabicyclo[3.2.1]octan-6-yl hydrogen sulfate]
[1]
  activity and/or spectrum of activity against bacterial strains that express KPC β-lactamases, compared with Avibactam: more active than Avibactam
[2]
  activity against bacterial strains that express the class D cephalosporinase OXA-15, compared with Avibactam: more active than Avibactam

## N=C(N)NCc1nnc([C@@H]2CC[C@@H]3CN2C(=O)N3OS(=O)(=O)O)s1 [Compound 721, (2S,5R)-2-(5-(guanidinomethyl)-1,3,4-thiadiazol-2-yl)-7-oxo-1,6-diazabicyclo[3.2.1]octan-6-yl hydrogen sulfate]
[1]
  activity and/or spectrum of activity against bacterial strains that express KPC β-lactamases, compared with Avibactam: more active than Avibactam
[2]
  activity against bacterial strains that express the class D cephalosporinase OXA-15, compared with Avibactam: more active than Avibactam

## NC1CCN(Cc2nnc([C@@H]3CC[C@@H]4CN3C(=O)N4OS(=O)(=O)O)o2)CC1 [Compound 774, (2S,5R)-2-(5-((4-aminopiperidin-1-yl)methyl)-1,3,4-oxadiazol-2-yl)-7-oxo-1,6-diazabicyclo[3.2.1]octan-6-yl hydrogen sulfate]
[1]
  activity and/or spectrum of activity against bacterial strains that express KPC β-lactamases, compared with Avibactam: more active than Avibactam
[2]
  activity against bacterial strains that express the class D cephalosporinase OXA-15, compared with Avibactam: more active than Avibactam
